According to patent US6562868B1, “Method for treatment of female sexual dysfunction” (Synphora AB, priority 1999, dated 2003):

What was measured:
[1] = test system: cat eyes; assay: Irritant effect in cat eyes (behavioural model, degree of eyelid closure); format: in vivo; conditions: for irritant effect in words, compared to PGE1-isopropyl ester: even at doses 1000 times higher than PGE1-isopropyl ester
Protocol: (§1) The effect of the test compounds on cavernous tissue was tested using penile tissue. As mentioned previously both in the male and female the genitals contain cavernous tissue, and the penile tissue can therefore be used as model for genital cavernous tissue. The general blood vessel relaxing effect of the test compounds was studied by investigating the immediate blood pressure decrease in rats upon intravenous infusion of the test compounds. The acute drop in blood pressure reflects a peripheral vasodilation in the animals brought about by the test compounds. The general irritative effect of the test compounds was studied in the cat eye which is very sensitive to noxious stimuli.
The irritant effect of the prostaglandin analogues was tested using a behavioural model in cats. In this model the irritant effect on the eye is studied by registering the degree of eyelid closure and the behaviour of the animals. Compounds that cause discomfort and pain in the eye cause the animals to close their eyes. The analogues were applied as carboxylic acid esters, to enhance bioavailability, topically on the eye as a single dose at different dose levels. The animals were then followed for several hours at regular intervals. Each compound and dose was tested on a group of 3-6 cats. At least 3 days elapsed between two consecutive tests on the same animals. An arbitrary scale from 0 (absence of irritation) to 3 (marked irritation), with half steps was used.

[2] = test system: cat eye; assay: Intraocular pressure in cats by pneumatonometry after topical administration; format: in vivo; conditions: 1 hour after topical administration; 3 cats, local anaesthesia; before treatment 16.3+/−0.9 mmHg; control eyes 15.7+/−0.7
Protocol: To confirm that 19R-OH-PGE2-methyl ester, which is more hydrophilic than PGE1-isopropyl ester, indeed penetrates into the cornea and the intraocular parts of the eye we measured the intraocular pressure in 3 cats under local anaesthesia before and 1 hour after topical administration of the prostaglandin to the eye. The intraocular pressure was measured by pneumatonometry. One eye was treated with the test compound and the other eye received the vehicle only. In the eyes treated topically with 19R-OH-PGE2-methyl ester the intraocular pressure decreased from 16.3+/−0.9 mmHg to 12.7+/−1.2 mmHg, whereas it was 16.3+/−0.9 mmHg and 15.7+/−0.7 mmHg in the control eyes at the same time points. It is well known that prostaglandins reduce the intraocular pressure in cats (Bito et al., 1989), and it can thus be taken as an evidence that the drug has penetrated into the eye. […] Thus the absence of pain and irritation after administration of 18RS-OH-PGE2, 19R-OH-PGE2 and 20-OH-PGE2 cannot be explained en the basis of increased hydrophilicity and poor bioavailability.

[3] = test system: human corpus cavernosum tissue; assay: Relaxation of isolated human penile cavernous tissue precontracted with norepinephrine, normalized to carbachol; format: cell-based; conditions: FIG. 1, parallel curves; about half to one third as potent as PGE1
Protocol: as §1
Human penile cavernous tissue was obtained fresh from surgery, and representative tissue samples were mounted in smooth muscle tissue baths containing a modified Kreb's solution consisting of NaCl 119 mM, KCl 4.6 mM, MgCl2 1.2 mM, NaH2PO4 1.2 mM, NaHCO3 15 mM, CaCl2 1.5 mM and glucose 11 mM. The solution also contained indomethacin at a final concentration of about 3 μM. The solution was continuously bubbled by 95% O2 and 5% CO2, and the temperature was kept at 37° C. […]

[4] = test system: rabbit penile blood vessels; assay: Vasorelaxation of isolated rabbit penile blood vessel ring segments in a small vessel myograph, normalized to papaverine; format: cell-based; conditions: FIG. 2; precontracted with 10^−6 M norepinephrine
Protocol: To study the effect of the PGE1 and […]-OH-PGE2 on the penile vasculature, penile blood vessels of the rabbit were isolated and mounted as ring segments in a small vessel myograph (J.P. Trading, Denmark) containing a solution consisting of NaCl 119 mM, KCl 4.7 mM, CaCl2 1.5 mM, MgSO4 1.17 mM, KH2PO4 1.18 mM, NaHCO3 25 mM, EDTA 0.027 mM and glucose 11 mM. The solution also contained indomethacin at a final concentration of about 3 μM, and was continuously bubbled by 95% O2 and 5%CO2. The temperature was kept constant at 37° C. The vessels were stretched and then precontracted using 10^-6 M norepinephrine, and the vasorelaxant effect of the prostaglandin analogues was normalized by comparing it to that of papaverine in the same preparation. Cumulative concentration-response curves were constructed for the analogues.

[5] = test system: rabbit eye; conditions: rabbits; Hall and Jaitly, 1977; cited from earlier work

For COC(=O)CCC/C=C\C[C@H]1C(=O)C[C@@H](O)[C@@H]1/C=C/[C@@H](O)CCC[C@@H](C)O [19R-OH—PGE2-me, 19-R-hydroxy-prostaglandin E2-methyl ester], which “irritant effect in words, compared to PGE1-isopropyl ester” value [1] is on record?
The value was “no or markedly reduced irritant effect”.

What about the intraocular pressure [2] of the same compound?
Its intraocular pressure is 12.7+/−1.2 mmHg.

With C[C@@H](O)CCC[C@H](O)/C=C/[C@H]1[C@H](O)CC(=O)[C@@H]1C/C=C\CCCC(=O)O [19R-OH-PGE2, 19R-hydroxy-prostaglandin E2] as the compound, how does the “factor by which concentration-response curve differs from PGE1 (less potent)” value [3] read?
Its value is 2-3.

What about the “vasodilatory effect (efficacy and potency, PGE1 versus 19R-OH-PGE2)” value [4] of the same compound?
Its value is “the same efficacy in inducing vasodilatation and were also about equipotent”.

And the “irritation by swelling of the ocular structures” value ([1]; cat eye)?
Its value is “no evidence of such irritation”.

And the “irritant effect on ocular structures” value [5]?
Its value is “inducing swelling of the ocular structures”.

And the lid closure [5]?
Its lid closure is “does not cause lid closure”.

For CCC(O)CC[C@H](O)/C=C/[C@H]1[C@H](O)CC(=O)[C@@H]1C/C=C\CCCC(=O)OC (stereo partly drawn) [18RS-OH—PGE2-me, 18RS-hydroxy PGE2 methyl ester], which “irritant effect in words, compared to PGE1-isopropyl ester” value [1] is on record?
Its value is “no or markedly reduced irritant effect”.

For CCCCC[C@H](O)/C=C/[C@H]1[C@H](O)CC(=O)[C@@H]1CCCCCCC(=O)O [PGE1, reference compound], which “vasodilatory effect (efficacy and potency, PGE1 versus 19R-OH-PGE2)” value [4] is on record?
Its value is “the same efficacy in inducing vasodilatation and were also about equipotent”.
